According to PubChem BioAssay (NCI):
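How tested: cells in 96-well plates exposed to compound for 48 hours at five concentrations. GI50 is the concentration that inhibits growth by half. TGI: concentration producing complete growth inhibition.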

Legend:
Test in all cases: inhibition of tumour cell growth, NCI panel, 48 h
UACC-257 melanoma = test system: UACC-257 melanoma
SK-OV-3 ovarian = test system: SK-OV-3 ovarian
SNB-75 CNS = test system: SNB-75 CNS
MDA-MB-435 = test system: MDA-MB-435
CAKI-1 renal = test system: CAKI-1 renal
COLO 205 colon = test system: COLO 205 colon
SK-MEL-2 melanoma = test system: SK-MEL-2 melanoma
NCI-H522 lung = test system: NCI-H522 lung
NCI/ADR-RES ovarian = test system: NCI/ADR-RES ovarian
NCI-H23 lung = test system: NCI-H23 lung
IGROV1 ovarian = test system: IGROV1 ovarian
A549 NSCLC = test system: A549 NSCLC
SW-620 colon = test system: SW-620 colon
K-562 leukemia = test system: K-562 leukemia
SF-295 CNS = test system: SF-295 CNS
SF-539 CNS = test system: SF-539 CNS
OVCAR-4 ovarian = test system: OVCAR-4 ovarian
DU-145 prostate = test system: DU-145 prostate
ACHN renal = test system: ACHN renal
HCT-116 colon = test system: HCT-116 colon
786-0 renal = test system: 786-0 renal
MDA-MB-468 breast = test system: MDA-MB-468 breast
SK-MEL-5 melanoma = test system: SK-MEL-5 melanoma
TK-10 renal = test system: TK-10 renal
OVCAR-3 ovarian = test system: OVCAR-3 ovarian
SR leukemia = test system: SR leukemia
SK-MEL-28 melanoma = test system: SK-MEL-28 melanoma
SF-268 CNS = test system: SF-268 CNS
M14 melanoma = test system: M14 melanoma
HL-60(TB) leukemia = test system: HL-60(TB) leukemia
NCI-H226 lung = test system: NCI-H226 lung
HCT-15 colon = test system: HCT-15 colon
HOP-62 NSCLC = test system: HOP-62 NSCLC
KM12 colon = test system: KM12 colon
CCRF-CEM leukemia = test system: CCRF-CEM leukemia
LOX IMVI melanoma = test system: LOX IMVI melanoma
RPMI-8226 leukemia = test system: RPMI-8226 leukemia
NCI-H460 lung = test system: NCI-H460 lung
MDA-MB-231 breast = test system: MDA-MB-231 breast
OVCAR-5 ovarian = test system: OVCAR-5 ovarian
HOP-92 NSCLC = test system: HOP-92 NSCLC
RXF 393 renal = test system: RXF 393 renal
UO-31 renal = test system: UO-31 renal
T-47D breast = test system: T-47D breast
PC-3 prostate = test system: PC-3 prostate
SN12C renal = test system: SN12C renal
SNB-19 CNS = test system: SNB-19 CNS
HCC-2998 colon = test system: HCC-2998 colon
U251 CNS = test system: U251 CNS
OVCAR-8 ovarian = test system: OVCAR-8 ovarian
HS 578T breast = test system: HS 578T breast
MOLT-4 leukemia = test system: MOLT-4 leukemia
BT-549 breast = test system: BT-549 breast
EKVX NSCLC = test system: EKVX NSCLC
HT29 colon = test system: HT29 colon
UACC-62 melanoma = test system: UACC-62 melanoma
A498 renal = test system: A498 renal
MALME-3M melanoma = test system: MALME-3M melanoma
MCF7 breast = test system: MCF7 breast

C=CCn1c(SCC(=O)Nc2ccc(C(=O)/C=C/c3ccccc3)cc2)nnc1-c1c[nH]c2ccccc12
GI50 (UACC-257 melanoma): 20.5 µM
TGI (UACC-257 melanoma): 88.7 µM
GI50 (SK-OV-3 ovarian): 14.7 µM
TGI (SK-OV-3 ovarian): 32.4 µM
GI50 (SNB-75 CNS): 2.69 µM
TGI (SNB-75 CNS): > 100 µM
GI50 (MDA-MB-435): 3.08 µM
TGI (MDA-MB-435): 10.6 µM
GI50 (CAKI-1 renal): 12.1 µM
TGI (CAKI-1 renal): > 100 µM
GI50 (COLO 205 colon): 17.6 µM
TGI (COLO 205 colon): 38.2 µM
GI50 (SK-MEL-2 melanoma): 11.2 µM
TGI (SK-MEL-2 melanoma): 55.4 µM
GI50 (NCI-H522 lung): 12.4 µM
TGI (NCI-H522 lung): 80.3 µM
GI50 (NCI/ADR-RES ovarian): 32.2 µM
TGI (NCI/ADR-RES ovarian): > 100 µM
GI50 (NCI-H23 lung): 14.4 µM
TGI (NCI-H23 lung): 29.8 µM
GI50 (IGROV1 ovarian): 22.5 µM
TGI (IGROV1 ovarian): 86.3 µM
GI50 (A549 NSCLC): 12.1 µM
TGI (A549 NSCLC): 51.9 µM
GI50 (SW-620 colon): 8.21 µM
TGI (SW-620 colon): 25.5 µM
GI50 (K-562 leukemia): 3.37 µM
TGI (K-562 leukemia): > 100 µM
GI50 (SF-295 CNS): 5.85 µM
TGI (SF-295 CNS): 37 µM
GI50 (SF-539 CNS): 11.8 µM
TGI (SF-539 CNS): 24.6 µM
GI50 (OVCAR-4 ovarian): 7.07 µM
TGI (OVCAR-4 ovarian): > 100 µM
GI50 (DU-145 prostate): 25 µM
TGI (DU-145 prostate): > 100 µM
GI50 (ACHN renal): 11.6 µM
TGI (ACHN renal): > 100 µM
GI50 (HCT-116 colon): 1.89 µM
TGI (HCT-116 colon): 3.99 µM
GI50 (786-0 renal): 20.7 µM
TGI (786-0 renal): 44 µM
GI50 (MDA-MB-468 breast): 4.41 µM
TGI (MDA-MB-468 breast): 17.4 µM
GI50 (SK-MEL-5 melanoma): 3.91 µM
TGI (SK-MEL-5 melanoma): 15 µM
GI50 (TK-10 renal): > 100 µM
TGI (TK-10 renal): > 100 µM
GI50 (OVCAR-3 ovarian): 9.93 µM
TGI (OVCAR-3 ovarian): 56.4 µM
GI50 (SR leukemia): 6.09 µM
TGI (SR leukemia): 92.4 µM
GI50 (SK-MEL-28 melanoma): 13.5 µM
TGI (SK-MEL-28 melanoma): 27.9 µM
GI50 (SF-268 CNS): 10.9 µM
TGI (SF-268 CNS): > 100 µM
GI50 (M14 melanoma): 12 µM
TGI (M14 melanoma): 37.5 µM
GI50 (HL-60(TB) leukemia): 12.7 µM
TGI (HL-60(TB) leukemia): > 100 µM
GI50 (NCI-H226 lung): 7.06 µM
TGI (NCI-H226 lung): 30.6 µM
GI50 (HCT-15 colon): 2.37 µM
TGI (HCT-15 colon): 5.53 µM
GI50 (HOP-62 NSCLC): 47.5 µM
TGI (HOP-62 NSCLC): > 100 µM
GI50 (KM12 colon): 12.6 µM
TGI (KM12 colon): 37.9 µM
GI50 (CCRF-CEM leukemia): 5.58 µM
TGI (CCRF-CEM leukemia): > 100 µM
GI50 (LOX IMVI melanoma): 2.14 µM
TGI (LOX IMVI melanoma): 5.34 µM
GI50 (RPMI-8226 leukemia): 2.36 µM
TGI (RPMI-8226 leukemia): 7.39 µM
GI50 (NCI-H460 lung): 40.8 µM
TGI (NCI-H460 lung): > 100 µM
GI50 (MDA-MB-231 breast): 11.3 µM
TGI (MDA-MB-231 breast): 42.9 µM
GI50 (OVCAR-5 ovarian): > 100 µM
TGI (OVCAR-5 ovarian): > 100 µM
GI50 (HOP-92 NSCLC): 6.54 µM
TGI (HOP-92 NSCLC): > 100 µM
GI50 (RXF 393 renal): 3.93 µM
TGI (RXF 393 renal): 17.9 µM
GI50 (UO-31 renal): 5.28 µM
TGI (UO-31 renal): 23.1 µM
GI50 (T-47D breast): 3.78 µM
TGI (T-47D breast): 62.3 µM
GI50 (PC-3 prostate): 5.25 µM
TGI (PC-3 prostate): 64.4 µM
GI50 (SN12C renal): 27.7 µM
TGI (SN12C renal): > 100 µM
GI50 (SNB-19 CNS): 20 µM
TGI (SNB-19 CNS): > 100 µM
GI50 (HCC-2998 colon): 2.69 µM
TGI (HCC-2998 colon): 7.56 µM
GI50 (U251 CNS): 6.65 µM
TGI (U251 CNS): 19.9 µM
GI50 (OVCAR-8 ovarian): 36 µM
TGI (OVCAR-8 ovarian): > 100 µM
GI50 (HS 578T breast): 9.05 µM
TGI (HS 578T breast): > 100 µM
GI50 (MOLT-4 leukemia): 4.37 µM
TGI (MOLT-4 leukemia): > 100 µM
GI50 (BT-549 breast): 13.1 µM
TGI (BT-549 breast): 28.7 µM
GI50 (EKVX NSCLC): 10.7 µM
TGI (EKVX NSCLC): > 100 µM
GI50 (HT29 colon): 3.27 µM
TGI (HT29 colon): 12.3 µM
GI50 (UACC-62 melanoma): 9.27 µM
TGI (UACC-62 melanoma): > 100 µM
GI50 (A498 renal): 16.7 µM
TGI (A498 renal): 38.5 µM
GI50 (MALME-3M melanoma): 50.6 µM
TGI (MALME-3M melanoma): > 100 µM
GI50 (MCF7 breast): 1.86 µM
TGI (MCF7 breast): 4.62 µM
